Assay results taken from the CheMixHub viscosity set.

Assay: xn = mol fraction of the nth substance listed

CCCC(C)O (stereo not given) + CC(=O)N(C)C
viscosity [mPa·s], 100 kPa
Conditions | 298.15 K | 313.15 K
x2 = 0.0565 | 2.917 | 1.821
x2 = 0.1029 | 2.592 | 1.693
x2 = 0.2137 | 2.057 | 1.432
x2 = 0.3057 | 1.757 | 1.276
x2 = 0.409 | 1.528 | 1.145
x2 = 0.5031 | 1.387 | 1.053
x2 = 0.6045 | 1.255 | 0.971
x2 = 0.7015 | 1.158 | 0.904
x2 = 0.7996 | 1.068 | 0.842
x2 = 0.9005 | 0.987 | 0.784
x2 = 0.9581 | 0.943 | –

CC[N+](CC)(CC)CC.[OH-] + CC(=O)N(C)C
viscosity [mPa·s], 101 kPa
Conditions | 298.15 K | 303.15 K | 308.15 K | 313.15 K
x1 = 0.0216 | 1.19 | 1.11 | 1.03 | 0.96
x1 = 0.0663 | 1.64 | 1.54 | 1.42 | 1.32
x1 = 0.1133 | 2.08 | 1.95 | 1.79 | 1.67
x1 = 0.1628 | 2.49 | 2.33 | 2.16 | 2.01
x1 = 0.215 | 2.83 | 2.66 | 2.49 | 2.33
x1 = 0.2422 | 2.99 | 2.81 | 2.64 | 2.47
x1 = 0.2988 | 3.28 | 3.09 | 2.89 | 2.72
x1 = 0.3899 | 3.63 | 3.43 | 3.23 | 3.04
x1 = 0.4894 | 3.89 | 3.69 | 3.47 | 3.27
x1 = 0.5986 | 4.08 | 3.87 | 3.63 | 3.44
x1 = 0.7188 | 4.24 | 4.04 | 3.77 | 3.59
x1 = 0.806 | 4.39 | 4.18 | 3.91 | 3.76
x1 = 0.8995 | 4.59 | 4.38 | 4.11 | 3.95

COCCO + CC(=O)N(C)C
viscosity [mPa·s], 101 kPa
Conditions | 298.15 K | 308.15 K | 318.15 K
x2 = 0.0301 | 1.535 | 1.254 | 1.048
x2 = 0.06 | 1.528 | 1.25 | 1.046
x2 = 0.0871 | 1.52 | 1.247 | 1.045
x2 = 0.125 | 1.507 | 1.239 | 1.041
x2 = 0.1767 | 1.488 | 1.228 | 1.034
x2 = 0.225 | 1.466 | 1.214 | 1.026
x2 = 0.2902 | 1.432 | 1.192 | 1.011
x2 = 0.364 | 1.39 | 1.164 | 0.991
x2 = 0.4602 | 1.329 | 1.122 | 0.96
x2 = 0.52 | 1.289 | 1.092 | 0.938
x2 = 0.5611 | 1.26 | 1.07 | 0.921
x2 = 0.62 | 1.216 | 1.038 | 0.897
x2 = 0.6654 | 1.181 | 1.011 | 0.876
x2 = 0.725 | 1.135 | 0.977 | 0.849
x2 = 0.7732 | 1.099 | 0.949 | 0.827
x2 = 0.825 | 1.059 | 0.919 | 0.803
x2 = 0.8847 | 1.014 | 0.885 | 0.775
x2 = 0.9501 | 0.965 | 0.847 | 0.746

CCCCBr + CC(C)(C)O
viscosity [mPa·s], 101.33 kPa
Conditions | x2 = 0.0988 | x2 = 0.197 | x2 = 0.3014 | x2 = 0.4101 | x2 = 0.5017 | x2 = 0.5982 | x2 = 0.7029 | x2 = 0.7982 | x2 = 0.8931
298.15 K | 0.597 | 0.612 | 0.643 | 0.692 | 0.798 | 0.926 | 1.148 | 1.509 | 2.232
303.15 K | 0.564 | 0.576 | 0.602 | 0.642 | 0.736 | 0.839 | 1.018 | 1.302 | 1.841
308.15 K | 0.534 | 0.54 | 0.563 | 0.598 | 0.679 | 0.763 | 0.909 | 1.134 | 1.543
313.15 K | 0.508 | 0.511 | 0.529 | 0.557 | 0.632 | 0.7 | 0.817 | 0.995 | 1.311
318.15 K | 0.494 | 0.482 | 0.497 | 0.521 | 0.581 | 0.638 | 0.737 | 0.882 | 1.127

COCCO + CC(C)(C)O
Conditions | viscosity [mPa·s]
303.15 K, 101.3 kPa, x1 = 0.1011 | 2.892
303.15 K, 101.3 kPa, x1 = 0.1977 | 2.538
303.15 K, 101.3 kPa, x1 = 0.2694 | 2.324
303.15 K, 101.3 kPa, x1 = 0.3774 | 2.043
303.15 K, 101.3 kPa, x1 = 0.4851 | 1.831
303.15 K, 101.3 kPa, x1 = 0.6774 | 1.579
303.15 K, 101.3 kPa, x1 = 0.745 | 1.523
303.15 K, 101.3 kPa, x1 = 0.849 | 1.456
303.15 K, 101.3 kPa, x1 = 0.9028 | 1.427
308.15 K, 101.33 kPa, x1 = 0.119 | 2.241
308.15 K, 101.33 kPa, x1 = 0.2504 | 1.929
308.15 K, 101.33 kPa, x1 = 0.3687 | 1.713
308.15 K, 101.33 kPa, x1 = 0.5096 | 1.527
308.15 K, 101.33 kPa, x1 = 0.6441 | 1.402
308.15 K, 101.33 kPa, x1 = 0.7218 | 1.35
308.15 K, 101.33 kPa, x1 = 0.8035 | 1.298
308.15 K, 101.33 kPa, x1 = 0.9026 | 1.242

CC(O)=S + CC(C)=O
298.1 K, 101 kPa
Conditions | viscosity [mPa·s]
x1 = 0.2 | 0.405
x1 = 0.4 | 0.479
x1 = 0.5 | 0.511
x1 = 0.6 | 0.551
x1 = 0.8 | 0.624

CCCC(=O)O + CC(C)=O
viscosity [mPa·s], 101 kPa
Conditions | x1 = 0.0996 | x1 = 0.1883 | x1 = 0.3023 | x1 = 0.3759 | x1 = 0.5144 | x1 = 0.5977 | x1 = 0.7009 | x1 = 0.7989 | x1 = 0.9016 | x1 = 0.9275
298.15 K | 0.3862 | 0.4576 | 0.5666 | 0.6477 | 0.8181 | 0.9307 | 1.071 | 1.216 | 1.361 | 1.408
308.15 K | 0.351 | 0.4131 | 0.5047 | 0.5741 | 0.7153 | 0.8095 | 0.9246 | 1.041 | 1.158 | 1.197
318.15 K | 0.3183 | 0.3666 | 0.4489 | 0.5135 | 0.6265 | 0.7078 | 0.7969 | 0.8942 | 0.9947 | 1.018

CCOC(=O)C(=O)OCC + CC(C)=O
303.15 K, 101 kPa
Conditions | viscosity [mPa·s]
x1 = 0.0571 | 0.381
x1 = 0.1199 | 0.487
x1 = 0.1893 | 0.599
x1 = 0.2664 | 0.715
x1 = 0.3527 | 0.844
x1 = 0.4497 | 0.979
x1 = 0.5602 | 1.123
x1 = 0.6858 | 1.274
x1 = 0.8308 | 1.453

COCCO + CC(C)=O
viscosity [mPa·s], 101.33 kPa
Conditions | 293.15 K | 298.15 K | 303.15 K
x1 = 0.0508 | 0.373 | 0.356 | 0.342
x1 = 0.1006 | 0.439 | 0.416 | 0.397
x1 = 0.1509 | 0.507 | 0.477 | 0.453
x1 = 0.2015 | 0.563 | 0.527 | 0.5
x1 = 0.2496 | 0.613 | 0.572 | 0.541
x1 = 0.2998 | 0.652 | 0.607 | 0.574
x1 = 0.351 | 0.688 | 0.64 | 0.603
x1 = 0.3995 | 0.726 | 0.673 | 0.632
x1 = 0.4503 | 0.767 | 0.709 | 0.663
x1 = 0.5006 | 0.818 | 0.753 | 0.7
x1 = 0.5504 | 0.875 | 0.804 | 0.742
x1 = 0.6007 | 0.941 | 0.861 | 0.79
x1 = 0.6496 | 1.012 | 0.923 | 0.845
x1 = 0.6998 | 1.09 | 0.991 | 0.905
x1 = 0.7502 | 1.17 | 1.062 | 0.969
x1 = 0.8004 | 1.248 | 1.132 | 1.033
x1 = 0.8511 | 1.333 | 1.209 | 1.106
x1 = 0.8999 | 1.419 | 1.287 | 1.179
x1 = 0.9503 | 1.542 | 1.398 | 1.278

CCCCNCCCC + CC(C)CO
viscosity [mPa·s], 101.33 kPa
Conditions | 298.15 K | 308.15 K | 318.15 K
x1 = 0.0659 | 3.147 | 2.311 | 1.743
x1 = 0.0962 | 3.01 | 2.218 | 1.683
x1 = 0.1558 | 2.74 | 2.038 | 1.562
x1 = 0.1967 | 2.557 | 1.918 | 1.482
x1 = 0.2681 | 2.25 | 1.708 | 1.336
x1 = 0.3132 | 2.076 | 1.591 | 1.256
x1 = 0.3956 | 1.791 | 1.394 | 1.118
x1 = 0.4699 | 1.576 | 1.245 | 1.011
x1 = 0.5552 | 1.379 | 1.11 | 0.914
x1 = 0.6322 | 1.234 | 1.007 | 0.838
x1 = 0.7567 | 1.05 | 0.874 | 0.743
x1 = 0.8163 | 0.985 | 0.824 | 0.708
x1 = 0.8647 | 0.93 | 0.787 | 0.678
x1 = 0.8978 | 0.901 | 0.766 | 0.662
x1 = 0.9162 | 0.882 | 0.751 | 0.651
